The results in this text go back to PMC8121951, “Structure-based engineering of substrate specificity for pinoresinol-lariciresinol reductases” (Nature Communications, 2021).

Series [1] has as its target T1, AtPrR1 (Arabidopsis thaliana, UniProt Q9FVQ6).
T1 construct: gene PRR1; full-length, pET-duet-1, E. coli Rosetta (DE3), Ni-NTA and Superdex-200; homodimer
T1 sequence (Q9FVQ6 1-317): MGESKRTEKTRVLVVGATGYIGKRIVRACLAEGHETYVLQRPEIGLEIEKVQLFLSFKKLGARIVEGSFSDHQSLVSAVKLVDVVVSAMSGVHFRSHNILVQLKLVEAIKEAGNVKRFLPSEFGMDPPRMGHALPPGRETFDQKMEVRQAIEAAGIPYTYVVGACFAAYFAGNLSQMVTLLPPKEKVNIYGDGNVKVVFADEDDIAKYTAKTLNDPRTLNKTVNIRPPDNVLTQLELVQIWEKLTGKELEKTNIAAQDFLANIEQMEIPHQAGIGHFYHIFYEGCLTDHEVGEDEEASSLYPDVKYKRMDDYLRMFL
Briefly: X-ray crystal structure, co-crystal. It counts as binding. The note with it: wild type.

In series [2] the target is T2, AtPrR2 (Arabidopsis thaliana, UniProt Q9SVP6).
T2 construct: gene PRR2; full-length, pET-duet-1, E. coli Rosetta (DE3), Ni-NTA and Superdex-200; homodimer
T2 sequence (Q9SVP6 1-317): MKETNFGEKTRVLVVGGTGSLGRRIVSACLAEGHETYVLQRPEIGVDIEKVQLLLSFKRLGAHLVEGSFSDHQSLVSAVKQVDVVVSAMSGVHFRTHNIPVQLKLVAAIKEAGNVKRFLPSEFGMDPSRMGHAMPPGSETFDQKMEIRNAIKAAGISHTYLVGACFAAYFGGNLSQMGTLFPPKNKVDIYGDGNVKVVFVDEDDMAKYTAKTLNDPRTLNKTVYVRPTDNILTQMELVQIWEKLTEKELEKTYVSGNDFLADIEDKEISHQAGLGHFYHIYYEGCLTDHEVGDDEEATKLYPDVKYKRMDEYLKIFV
Briefly: X-ray crystal structure, co-crystal. It counts as binding. Particulars: wild type, 1.6 Å.

The target in series [3] is T3, IiPLR1 (Isatis tinctoria, UniProt I6LRS1).
T3 construct: full-length, pET-duet-1, E. coli Rosetta (DE3), Ni-NTA and Superdex-200; homodimer
T3 sequence (I6LRS1 1-317): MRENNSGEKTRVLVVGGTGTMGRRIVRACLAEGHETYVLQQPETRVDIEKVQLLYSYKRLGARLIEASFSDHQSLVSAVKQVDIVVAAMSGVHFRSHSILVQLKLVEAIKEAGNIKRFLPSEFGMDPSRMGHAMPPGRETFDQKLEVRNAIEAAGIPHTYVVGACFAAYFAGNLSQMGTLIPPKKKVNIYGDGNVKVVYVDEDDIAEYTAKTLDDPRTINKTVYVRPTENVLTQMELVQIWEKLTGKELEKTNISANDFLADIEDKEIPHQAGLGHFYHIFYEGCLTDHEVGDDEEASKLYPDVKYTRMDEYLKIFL
As to the kind of experiment: X-ray crystal structure, co-crystal. The format is binding. The note with it: wild type.

For series [4], the target named is T4, AtPrR2 (Arabidopsis thaliana, UniProt Q9SVP6, N98S).
T4 construct: gene PRR2; full-length, pET-duet-1, E. coli Rosetta (DE3), Ni-NTA and Superdex-200; homodimer
T4 sequence (Q9SVP6 1-317 N98S): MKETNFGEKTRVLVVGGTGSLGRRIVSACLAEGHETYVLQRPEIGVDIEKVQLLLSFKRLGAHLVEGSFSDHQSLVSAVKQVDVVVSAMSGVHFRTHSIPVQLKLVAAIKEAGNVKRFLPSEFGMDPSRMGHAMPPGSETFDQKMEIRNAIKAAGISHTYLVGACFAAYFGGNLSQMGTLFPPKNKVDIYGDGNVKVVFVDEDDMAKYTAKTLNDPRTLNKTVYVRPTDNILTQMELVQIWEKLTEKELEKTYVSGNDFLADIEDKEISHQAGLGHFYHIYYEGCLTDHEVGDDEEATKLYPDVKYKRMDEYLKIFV
As to the kind of experiment: LC-MS product conversion. The format is biochemical. Particulars: NADPH 150 μM, Tris-HCl pH 7.0, 30 °C, 30 min.

Series [5] addresses Isatis indigotica pinoresinol-lariciresinol reductase 1 (Isatis indigotica). Briefly: crystal structure; sitting-drop vapour diffusion at 20 or 4 °C, protein 5-10 mg/mL; apo, with NADP+ (1:5) or with NADP+ and substrate/product (1:5:10); homodimer seen in the crystal.
Series [6] deals with the molecule itself. Described as above.
Substrate in series [7]: COc1cc(CC2COC(c3ccc(O)c(OC)c3)C2CO)ccc1O
Briefly: LC-MS substrate consumption, Lineweaver-Burk. It counts as biochemical, Isatis tinctoria. The note with it: NADPH 150 μM, 50 mM Tris-HCl pH 7.0, 10% glycerol, 30 °C, racemic substrate. An excerpt: (§1) LC-MS substrate consumption, Lineweaver-Burk on IiPLR1

Substrate in series [8]: COc1cc(C2OCC3C(c4ccc(O)c(OC)c4)OCC23)ccc1O
As to the kind of experiment: LC-MS substrate consumption, Lineweaver-Burk. Particulars: NADPH 150 μM, 50 mM Tris-HCl pH 7.0, 10% glycerol, 30 °C, racemic substrate. It counts as biochemical, Isatis tinctoria.
Description: as §1

As for `COc1cc(C[C@H]2CO[C@H](c3ccc(O)c(OC)c3)[C@H]2CO)ccc1O` [+LAR, (+)-lariciresinol], in series [1] (with NADP+, 1.8 Å), the “X-ray crystal structure, co-crystal” value was 7CSD (AtPrR1 with NADP^+ and (+)lariciresinol).

As for `COc1cc([C@H]2OC[C@H]3[C@@H]2CO[C@@H]3c2ccc(O)c(OC)c2)ccc1O` [+PIN, (+)-pinoresinol], the “X-ray crystal structure, co-crystal” value in series [1] (with NADP+, 2.0 Å) is 7CSB (AtPrR1 with NADP^+ and (+)pinoresinol); in series [2] (with NADP+), 7CSH (AtPrR2 with NADP^+ and (+)pinoresinol); in series [3] (with NADP+, 2.3 Å) it was 7CS4 (IiPLR1 with NADP^+ and (+)pinoresinol).

As to `COc1cc(C[C@H](CO)[C@@H](CO)Cc2ccc(O)c(OC)c2)ccc1O` [+SEC, (+)-secoisolariciresinol], the “X-ray crystal structure, co-crystal” value in series [3] (with NADP+, 2.3 Å) was 7CS7 (IiPLR1 with NADP^+ and (+)secoisolariciresinol).

`COc1cc(C[C@@H]2CO[C@@H](c3ccc(O)c(OC)c3)[C@@H]2CO)ccc1O` [-LAR, (−)-lariciresinol]: the “X-ray crystal structure, co-crystal” value in series [1] (with NADP+, 2.5 Å) was 7CSE (AtPrR1 with NADP^+ and (−)lariciresinol); in series [3] (with NADP+, 2.2 Å), 7CS6 (IiPLR1 with NADP^+ and (−)lariciresinol).

As for `COc1cc([C@@H]2OC[C@@H]3[C@H]2CO[C@H]3c2ccc(O)c(OC)c2)ccc1O` [-PIN, (−)-pinoresinol], the “X-ray crystal structure, co-crystal” value is 7CSC (AtPrR1 with NADP^+ and (−)pinoresinol) in series [1] (with NADP+, 2.5 Å); 7CS5 (IiPLR1 with NADP^+ and (−)pinoresinol) in series [3] (with NADP+, 2.1 Å).

For `COc1cc(C[C@@H](CO)[C@H](CO)Cc2ccc(O)c(OC)c2)ccc1O` [-SEC, (−)-secoisolariciresinol], the “X-ray crystal structure, co-crystal” value in series [1] (with NADP+, 2.0 Å) is 7CSF (AtPrR1 with NADP^+ and (−)secoisolariciresinol); in series [3] (with NADP+, 2.6 Å) it was 7CS8 (IiPLR1 with NADP^+ and (−)secoisolariciresinol).

As for `NC(=O)c1ccc[n+]([C@@H]2O[C@H](COP(=O)(O)OP(=O)(O)OC[C@H]3O[C@@H](n4cnc5c(N)ncnc54)[C@H](OP(=O)(O)O)[C@@H]3O)[C@@H](O)[C@H]2O)c1` [NAP, NADP^+], the “X-ray crystal structure, co-crystal” value in series [1] (2.0 Å) is 7CSA (AtPrR1 with NADP^+); in series [2] (with (+)-pinoresinol), 7CSH (AtPrR2 with NADP^+ and (+)pinoresinol); in series [3] (2.4 Å) it was 7CS3 (IiPLR1 with NADP^+).

On to `COc1cc(C[C@H]2CO[C@H](c3ccc(O)c(OC)c3)[C@H]2CO)ccc1O` [lariciresinol], for which the LC-MS product conversion entry in series [4] is “AtPrR2 mutant N98S could utilize lariciresinol to produce secoisolariciresinol”.

The term stoichiometry N denotes the number of molecules, sites or subunits per partner or assembly. For the molecule “Isatis indigotica pinoresinol-lariciresinol reductase 1 (enzyme)”, in series [5], the stoichiometry N was 2.

B1: Arabidopsis thaliana pinoresinol reductase 2 (enzyme, UniProt Q9SVP6 1-317, looked up)
chain: MKETNFGEKTRVLVVGGTGSLGRRIVSACLAEGHETYVLQRPEIGVDIEKVQLLLSFKRLGAHLVEGSFSDHQSLVSAVKQVDVVVSAMSGVHFRTHNIPVQLKLVAAIKEAGNVKRFLPSEFGMDPSRMGHAMPPGSETFDQKMEIRNAIKAAGISHTYLVGACFAAYFGGNLSQMGTLFPPKNKVDIYGDGNVKVVFVDEDDMAKYTAKTLNDPRTLNKTVYVRPTDNILTQMELVQIWEKLTEKELEKTYVSGNDFLADIEDKEISHQAGLGHFYHIYYEGCLTDHEVGDDEEATKLYPDVKYKRMDEYLKIFV
notes: Head-to-tail homodimer in both crystal forms (apo); with NADP+ and (+)-pinoresinol); also called AtPrR2; PrR; source: E. coli Rosetta (DE3), purified (Ni-NTA, Superdex-200); not shown: His tag (inferred from the Ni-NTA purification)
As for B1, the “stoichiometry N” value in series [6] stood at 2.

B2: Arabidopsis thaliana pinoresinol reductase 1 (enzyme, UniProt Q9FVQ6 1-317, looked up)
chain: MGESKRTEKTRVLVVGATGYIGKRIVRACLAEGHETYVLQRPEIGLEIEKVQLFLSFKKLGARIVEGSFSDHQSLVSAVKLVDVVVSAMSGVHFRSHNILVQLKLVEAIKEAGNVKRFLPSEFGMDPPRMGHALPPGRETFDQKMEVRQAIEAAGIPYTYVVGACFAAYFAGNLSQMVTLLPPKEKVNIYGDGNVKVVFADEDDIAKYTAKTLNDPRTLNKTVNIRPPDNVLTQLELVQIWEKLTGKELEKTNIAAQDFLANIEQMEIPHQAGIGHFYHIFYEGCLTDHEVGEDEEASSLYPDVKYKRMDDYLRMFL
notes: Head-to-tail homodimer in all crystal forms; crystallised apo, with NADP+, or with NADP+ and substrate/product; also called AtPrR1; PrR; source: E. coli Rosetta (DE3), purified (Ni-NTA, Superdex-200); not shown: His tag (inferred from the Ni-NTA purification)
As to B2, the “stoichiometry N” value in series [6] turned out to be 2.

B3: IiPLR1 (Isatis tinctoria; V46A) (protein)
chain: MRENNSGEKTRVLVVGGTGTMGRRIVRACLAEGHETYVLQQPETRADIEKVQLLYSYKRLGARLIEASFSDHQSLVSAVKQVDIVVAAMSGVHFRSHSILVQLKLVEAIKEAGNIKRFLPSEFGMDPSRMGHAMPPGRETFDQKLEVRNAIEAAGIPHTYVVGACFAAYFAGNLSQMGTLIPPKKKVNIYGDGNVKVVYVDEDDIAEYTAKTLDDPRTINKTVYVRPTENVLTQMELVQIWEKLTGKELEKTNISANDFLADIEDKEIPHQAGLGHFYHIFYEGCLTDHEVGDDEEASKLYPDVKYTRMDEYLKIFL
notes: full-length, pET-duet-1, E. coli Rosetta (DE3), Ni-NTA and Superdex-200; homodimer
By Km is commonly meant the substrate concentration at which the rate is half of its maximum. What is called Vmax is the top rate of the reaction or transport when substrate is in excess. By kcat is commonly meant the maximal rate divided by the concentration of active sites. Usually kcat/Km stands for the second-order rate constant that governs catalysis at low substrate concentration. Consider B3, for which, in series [7], the Michaelis-Menten constant (Km) amounted to 26.5 ± 0.60 µM, the maximum rate (Vmax) stood at 0.023 µM/min, the kcat worked out at 0.0135 ± 0.00075 s⁻¹ and the kcat/Km came out at 517 ± 33.3 M⁻¹ s⁻¹. For the same molecule, in series [8], the Michaelis-Menten constant (Km) worked out at 29.4 ± 1.62 µM, the Vmax worked out at 3.22 µM/min, the kcat was 1.91 ± 0.402 s⁻¹ and the kcat/Km amounted to 64700 ± 10800 M⁻¹ s⁻¹.
